Assay results reported in patent US9757375B2, “Compounds that inhibit human DNA ligases and methods of treating cancer” (University of Maryland, Baltimore, priority 2007, dated 2017).
“Also recorded” adds a separate entry of the source. Read-outs that look alike come from different tables or passages of the source.

Tests used:
Experiment in all cases: High-throughput fluorescence-based DNA joining (ligation) assay
Assay type in all cases: biochemical
hLigI = molecular target: T1, hLigI (Homo sapiens, UniProt P18858); details: for inhibition of hLigI (DNA ligase I), in words: in vitro screen, 100 μmol/L, the 15 hLigI inhibitors inhibited by >50%
T1 construct: made in house
Outline: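 Nicked DNA substrate (10 pmol) was incubated with 0.25 pmol hLigI, with or without 100 μmol/L test compound, in duplicate. Afterwards the DNA was denatured and renatured with a 20-fold excess of unmodified oligonucleotide. Ligation forms an AF488/BHQ1 hairpin, read as reduced fluorescence at 518 nm.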

human DNA ligase III = molecular target: T2, human DNA ligase III (Homo sapiens, UniProt P49916); details: for inhibition of human DNA ligase III, in words: in vitro screen
T2 sequence (P49916 1-862 isoform P49916-4): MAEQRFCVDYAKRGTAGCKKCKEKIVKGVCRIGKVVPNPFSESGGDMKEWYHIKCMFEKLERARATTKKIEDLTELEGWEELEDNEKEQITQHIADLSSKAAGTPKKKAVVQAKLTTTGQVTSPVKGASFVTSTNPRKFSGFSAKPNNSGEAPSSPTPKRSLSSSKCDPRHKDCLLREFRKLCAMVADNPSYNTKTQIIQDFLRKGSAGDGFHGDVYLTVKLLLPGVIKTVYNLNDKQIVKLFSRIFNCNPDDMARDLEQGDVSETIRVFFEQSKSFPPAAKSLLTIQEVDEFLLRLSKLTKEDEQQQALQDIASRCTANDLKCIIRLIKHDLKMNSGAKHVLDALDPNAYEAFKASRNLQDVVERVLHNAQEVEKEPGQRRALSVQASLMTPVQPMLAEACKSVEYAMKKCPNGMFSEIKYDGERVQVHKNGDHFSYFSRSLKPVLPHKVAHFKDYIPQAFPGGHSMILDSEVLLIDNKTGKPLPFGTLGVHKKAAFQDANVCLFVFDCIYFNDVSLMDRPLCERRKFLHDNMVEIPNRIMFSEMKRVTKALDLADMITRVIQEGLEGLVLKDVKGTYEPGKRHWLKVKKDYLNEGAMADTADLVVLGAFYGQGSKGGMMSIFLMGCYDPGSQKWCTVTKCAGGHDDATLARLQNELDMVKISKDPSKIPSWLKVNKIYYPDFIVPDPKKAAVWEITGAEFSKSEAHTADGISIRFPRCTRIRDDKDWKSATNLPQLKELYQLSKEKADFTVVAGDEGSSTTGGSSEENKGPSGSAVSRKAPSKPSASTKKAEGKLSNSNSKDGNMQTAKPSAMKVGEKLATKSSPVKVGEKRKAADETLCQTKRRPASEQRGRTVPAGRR
Outline: (§1)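 Ligation joins an AF488-labelled and a BHQ1-labelled oligonucleotide. After denaturation and renaturation with a 20-fold excess of unlabelled competitor strand, the product forms a quenched hairpin, so joining is read as loss of 518 nm fluorescence. Ligase III used a nicked duplex; ligase IV used two duplexes with short complementary single-strand ends.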

human DNA ligase IV = human DNA ligase IV (Homo sapiens, UniProt P49917); details: for inhibition of human DNA ligase IV, in words: in vitro screen
Outline: as §1

[1] = 100 uM, read-out: % activity Inhibition hLigI 100 uM
[2] = 100 μM, read-out: % of inhibition @ 100 μM (Helen's data) hLigI
[3] = 100 μM, read-out: In vitro % inhib hLigI 100
[4] = 100 μM, read-out: In vitro % inhib hLigIII 100
[5] = 100 uM, Ø not defined (0 in Table 5A), read-out: % activity Inhibition hLigIII 100 uM
[6] = read-out: % of inhibition @ 100 μM (Helen's data) hLigIII
[7] = 100 μM, read-out: % of inhibition @ 100 μM (Helen's data) hLigIV
[8] = 100 μM, read-out: In vitro % inhib hLigIV 100
[9] = 100 uM, Ø not defined (0 in Table 5A), read-out: % activity Inhibition hLigIV 100 uM
[10] = 100 uM, Ø not defined (0 in Table 5A)

T1 sequence (P18858 whole entry): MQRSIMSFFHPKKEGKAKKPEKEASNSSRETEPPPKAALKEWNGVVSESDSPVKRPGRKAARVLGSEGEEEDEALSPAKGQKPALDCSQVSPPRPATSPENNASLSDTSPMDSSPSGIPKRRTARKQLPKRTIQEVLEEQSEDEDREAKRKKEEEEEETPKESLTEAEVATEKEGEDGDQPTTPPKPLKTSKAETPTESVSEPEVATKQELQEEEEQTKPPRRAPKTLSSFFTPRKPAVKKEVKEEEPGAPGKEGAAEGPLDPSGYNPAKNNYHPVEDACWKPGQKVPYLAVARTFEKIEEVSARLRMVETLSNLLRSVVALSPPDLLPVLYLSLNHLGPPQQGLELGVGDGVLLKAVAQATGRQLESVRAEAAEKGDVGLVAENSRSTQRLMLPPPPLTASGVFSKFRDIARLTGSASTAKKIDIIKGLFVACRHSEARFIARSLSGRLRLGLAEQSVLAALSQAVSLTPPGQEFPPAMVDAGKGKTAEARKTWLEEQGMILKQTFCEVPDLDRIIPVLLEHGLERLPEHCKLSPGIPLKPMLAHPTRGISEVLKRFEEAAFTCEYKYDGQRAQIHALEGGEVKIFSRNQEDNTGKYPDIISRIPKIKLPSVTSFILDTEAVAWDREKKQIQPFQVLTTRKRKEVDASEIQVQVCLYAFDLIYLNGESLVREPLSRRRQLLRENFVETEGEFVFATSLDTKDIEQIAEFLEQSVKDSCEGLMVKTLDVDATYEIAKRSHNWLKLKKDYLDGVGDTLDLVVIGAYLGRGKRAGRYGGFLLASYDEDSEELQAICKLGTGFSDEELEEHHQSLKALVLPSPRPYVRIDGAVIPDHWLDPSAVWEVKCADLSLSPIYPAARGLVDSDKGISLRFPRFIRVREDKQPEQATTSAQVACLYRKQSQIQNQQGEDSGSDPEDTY
Chain of human DNA ligase IV (P49917 whole entry): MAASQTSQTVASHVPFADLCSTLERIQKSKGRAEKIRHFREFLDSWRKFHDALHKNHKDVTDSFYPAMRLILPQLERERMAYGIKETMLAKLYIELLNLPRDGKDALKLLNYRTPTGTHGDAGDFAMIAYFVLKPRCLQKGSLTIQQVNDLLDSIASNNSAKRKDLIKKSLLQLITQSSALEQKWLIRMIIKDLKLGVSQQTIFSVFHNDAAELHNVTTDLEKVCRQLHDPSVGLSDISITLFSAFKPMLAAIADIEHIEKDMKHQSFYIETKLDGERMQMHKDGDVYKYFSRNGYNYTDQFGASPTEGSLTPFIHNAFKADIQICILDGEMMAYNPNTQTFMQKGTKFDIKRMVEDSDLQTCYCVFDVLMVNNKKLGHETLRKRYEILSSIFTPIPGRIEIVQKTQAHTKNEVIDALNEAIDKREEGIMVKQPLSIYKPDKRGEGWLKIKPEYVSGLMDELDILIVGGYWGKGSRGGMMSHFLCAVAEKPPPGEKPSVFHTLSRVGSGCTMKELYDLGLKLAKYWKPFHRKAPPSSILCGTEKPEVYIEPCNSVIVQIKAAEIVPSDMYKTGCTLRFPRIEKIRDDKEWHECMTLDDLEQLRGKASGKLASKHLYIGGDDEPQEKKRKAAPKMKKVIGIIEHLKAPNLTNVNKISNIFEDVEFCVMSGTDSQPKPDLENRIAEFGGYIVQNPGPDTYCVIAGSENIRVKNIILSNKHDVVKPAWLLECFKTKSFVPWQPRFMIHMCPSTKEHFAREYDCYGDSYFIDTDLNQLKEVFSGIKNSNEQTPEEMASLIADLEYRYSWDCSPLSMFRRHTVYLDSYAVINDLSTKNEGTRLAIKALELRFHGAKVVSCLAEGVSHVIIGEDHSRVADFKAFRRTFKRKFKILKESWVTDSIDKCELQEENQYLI
Chain of human DNA ligase IV (Q13426 whole entry partner): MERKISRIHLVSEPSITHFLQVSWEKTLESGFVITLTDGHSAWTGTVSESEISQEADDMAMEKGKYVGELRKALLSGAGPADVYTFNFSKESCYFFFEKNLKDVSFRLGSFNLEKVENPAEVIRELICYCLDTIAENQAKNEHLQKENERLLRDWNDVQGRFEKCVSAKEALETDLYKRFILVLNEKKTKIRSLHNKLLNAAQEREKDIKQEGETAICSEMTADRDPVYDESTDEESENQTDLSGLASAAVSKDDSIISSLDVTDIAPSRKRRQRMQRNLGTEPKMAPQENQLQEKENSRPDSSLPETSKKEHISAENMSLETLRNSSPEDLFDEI

| SMILES | inhibition at 100 µM (hLigI; [1]) [%] | inhibition at 100 µM (hLigI; [2]) [%] | inhibition at 100 µM (hLigI; [3]) [%] | inhibition of hLigI (DNA ligase I), in words (hLigI) | inhibition at 100 µM (human DNA ligase III; [4]) [%] | inhibition at 100 µM (human DNA ligase III; [5]) [%] | inhibition of human DNA ligase III, in words (human DNA ligase III) | inhibition at 100 µM (human DNA ligase III; [6]) [%] | inhibition at 100 µM (human DNA ligase IV; [7]) [%] | inhibition at 100 µM (human DNA ligase IV; [8]) [%] | inhibition of human DNA ligase IV, in words (human DNA ligase IV) | % activity Inhibition hLigIII 100 uM (human DNA ligase III; [10]) | % activity Inhibition hLigIV 100 uM (human DNA ligase IV; [10]) | also measured |
| --- | --- | --- | --- | --- | --- | --- | --- | --- | --- | --- | --- | --- | --- | --- |
| Cc1oc(C(=O)O)cc1CSCc1cc(C(=O)O)c(C)o1 [Compound 197] | 91 ± 6.9 | 91 | 91 ± 7 | inhibited hLigI; also recorded: inhibit all three human DNA ligases | 96 ± 4 | 96.5 ± 3.5 | inhibit all three human DNA ligases | 97 | 57 | 57 ± 3 | inhibit all three human DNA ligases |  |  | inhibition at 100 µM (human DNA ligase IV; [9]): > 60% |
| COc1ccc(-c2cnc3c(O)nc(O)nc3n2)cc1 [Compound 190] | 52.5 ± 6.6 |  | 53 ± 7 | inhibited hLigI; also recorded: specific for DNA ligase I | 0 |  |  |  |  | 0 |  | Ø | Ø |  |
| CCCCC(=O)c1ccc(O)cc1O [Compound 213] | 36.4 ± 8.6 |  | 36 ± 9 | specifically inhibit DNA ligases I and III | 25 ± 1 | 25.2 ± 0.46 | specifically inhibit DNA ligases I and III |  |  | 0 |  |  | Ø |  |
| Nc1nc(S)nc(O)c1/N=C/c1ccccc1 [Compound 189] | 68.8 ± 4.9 |  | 69 ± 5 | inhibited hLigI; also recorded: inhibit hLigI but not T4 DNA ligase; also recorded: inhibits all three human DNA ligases; also recorded: inhibit DNA ligase 1 | 53 ± 5 | 52.6 ± 4.8 | inhibits all three human DNA ligases; also recorded: inhibits DNA ligase III |  |  | 41 ± 6 | inhibits all three human DNA ligases; also recorded: inhibits DNA ligase IV |  |  | inhibition at 100 µM (human DNA ligase IV; [9]): > 50% |
| CS(=O)(=O)NNC(=O)C(=O)NNc1ccccc1 [Compound 184] |  |  |  | specific for DNA ligase I |  |  |  |  |  |  |  | Ø | Ø | % activity Inhibition hLigI 100 uM (hLigI; 100 uM): 37.7 ± 12.4%; % of inhibition @ 100 μM (Helen's data) hLigI (hLigI; 100 μM): 38%; In vitro % inhib hLigI 100 (μM) (hLigI; 100 μM): 38 ± 12%; % of inhibition @ 100 μM (Helen's data) hLigIII (human DNA ligase III; 100 μM): NI (NI- no inhibition); In vitro % inhib hLigIII 100 (μM) (human DNA ligase III; 100 μM): 0%; % of inhibition @ 100 μM (Helen's data) hLigIV (human DNA ligase IV; 100 μM): NI (NI- no inhibition); In vitro % inhib hLigIV 100 (μM) (human DNA ligase IV; 100 μM): 0% |
| Cc1c(Br)cc(NCC(=O)N/N=C\c2cc([N+](=O)[O-])ccc2O)cc1Br [Compound 67] | 78.3 ± 8.5 | 78 | 78 ± 8 | inhibited hLigI; also recorded: inhibit hLigI but not T4 DNA ligase; also recorded: specifically inhibit DNA ligases I and III; also recorded: inhibit DNA ligase 1; also recorded: inhibits both hLigI and hLigIII | 88 ± 12 | 88.2 ± 11.6 | specifically inhibit DNA ligases I and III; also recorded: inhibits DNA ligase III; also recorded: inhibits both hLigI and hLigIII | 88 | < 20 | 0 | do not inhibit DNA ligase IV |  | Ø |  |
| O=c1[nH]ncc(N/N=C\c2ccc(O)c([N+](=O)[O-])c2)c1Cl [Compound 82] | 59.8 ± 1.7 |  | 60 ± 2 | inhibited hLigI; also recorded: inhibit hLigI but not T4 DNA ligase; also recorded: specific for DNA ligase I; also recorded: inhibit DNA ligase 1; also recorded: only inhibits DNA ligase I; also recorded: inhibits only hLigI | 29 ± 7 | 29.2 ± 7.3 |  |  |  | 0 | do not inhibit DNA ligase IV |  | Ø |  |
| O=C(c1ccc(O)cc1)c1ccccc1O [Compound 200] | 50.7 ± 10.9 | 51 | 51 ± 11 | inhibited hLigI; also recorded: specifically inhibit DNA ligases I and III | 60 ± 5 | 59.5 ± 5.2 | specifically inhibit DNA ligases I and III | 60 | < 20 | 0 |  |  | Ø |  |
| O=C1Nc2ccccc2Oc2cc([N+](=O)[O-])cc([N+](=O)[O-])c21 [Compound 180] |  |  |  | inhibited hLigI |  |  |  | > 40 |  |  |  |  |  | inhibition at 100 µM (hLigI; read-out: % of inhibition @ 100 μM (Helen's data) hLigI): 58%; inhibition at 100 µM (human DNA ligase IV; read-out: % of inhibition @ 100 μM (Helen's data) hLigIV): < 20% |
| O=C(Cn1cnc([N+](=O)[O-])n1)N/N=C/c1ccc(O)cc1O [Compound 151] | 25.9 ± 1.2 | 25 | 26 ± 1 | specific for DNA ligase I | 0 |  |  | < 20 | < 20 | 0 |  | Ø | Ø |  |
| C/C(O)=C1/C(=O)N(c2nc3ccccc3s2)N=C1c1ccccc1 [Compound 43] | 29.2 ± 3.5 |  | 29 ± 4 | specific for DNA ligase I | 0 |  |  |  |  | 0 |  | Ø | Ø |  |
| O=C(O)CSc1cc(Cl)c2nonc2c1[N+](=O)[O-] [Compound 64] | 60.6 ± 0.54 | 61 | 61 ± 1 | inhibited hLigI; also recorded: inhibit all three human DNA ligases | 49 ± 1 | 48.5 ± 0.1 | inhibit all three human DNA ligases | 49 | 52 | 52 ± 1 | inhibit all three human DNA ligases |  |  | inhibition at 100 µM (human DNA ligase IV; [9]): 51.9 ± 1.2% |
